Assay results taken from patent publication US9212396B2, “Materials and methods useful for affecting tumor cell growth, migration and invasion” (The Ohio State University, priority 2009, dated 2015).

Columns and labels:
[1] = system: miR-221 and miR-222; test: qRT-PCR of miR-221 and miR-222 in GTL16 cells; type: cell-based, human; conditions: GTL-16 cells, MET inhibition, compared with the untreated cells
Procedure: Real-time PCR was performed using a standard TaqMan PCR Kit protocol on an Applied Biosystems 7900HT Sequence Detection System (Applied Biosystems). The 10 μl PCR reaction included 0.67 μl RT product, 1 μl TaqMan Universal PCR Master Mix (Applied Biosystems), […]. The reactions were incubated in a 96-well plate at 95° C. for […], followed by 40 cycles of 95° C. for 15 s and 60° C. for 1 min. All reactions were run in triplicate. The threshold cycle (CT) is defined as the fractional cycle number at which the fluorescence passes the fixed threshold. The comparative CT method for relative quantization of gene expression (Applied Biosystems) was used to determine miRNA expression levels. The y axis represents the 2(-CT), or the relative expression of the different miRs. miRs expression was calculated relative to U44 and U48 rRNA and multiplied by 104. Experiments were carried out in triplicate for each data point, and data analysis was performed by using software (Bio-Rad).

[2] = system: PTEN and TIMP3; test: Western blot of PTEN and TIMP3 in GTL16 cells; type: cell-based, human; conditions: GTL16 cells treated for 24 h with 4 μM
Procedure: Total proteins from NSCLC and HCC cells were extracted with radioimmuno-precipitation assay (RIPA) buffer ([…] NaCl, […] Tris-HCl, pH 7.5, 1% Triton, 0.1% SDS, 0.1% sodium deoxycholate and 1% Nonidet P40). Sample extract (50 μg) was resolved on 7.5-12% SDS-polyacrylamide gels (PAGE) using a mini-gel apparatus (Bio-Rad Laboratories) and transferred to Hybond-C extra nitrocellulose. Membranes were blocked for 1 h with 5% nonfat dry milk in Tris-buffered saline containing 0.05% Tween 20, incubated overnight with primary antibody, washed and incubated with secondary antibody, and visualized by chemiluminescence.
The following primary antibodies were used: anti-PTEN, anti-c-Jun, anti-p-c-Jun, anti-Fos, anti-p-JNK, anti-MMP3, anti-Mc1-1 (Santa Cruz), anti-TIMP3 (Millipore) anti-PI3K (BD Biosciences), anti-ERKs, anti-phospho ERKs, anti-AKT, anti-p-AKT, anti-GSK3b, anti-p-GSK3b (Ser9), anti-PAK1 anti-caspase-8,-3 and -9, anti-PARP, anti-cytochrome c (Cell signaling) and anti-MMP9, anti-FADD (Abcam), anti-1-actin antibody (Sigma). A secondary anti-rabbit or anti-mouse immunoglobulin G (IgG) antibody peroxidase conjugate (Chemicon) was used.

[3] = system: HCC-derived cell lines; test: Proliferation (MTT) assay on HCC-derived cell lines exposed to TRAIL; type: cell-based, human; conditions: TRAIL 400 ng/ml 24 h
Procedure: Cells were plated in 96-well plates in triplicate and incubated at 37° C. in a 5% CO2 incubator. Super-Killer TRAIL (Alexis Biochemicals) was used for 24-48 h at 400 ng ml-1. Cell viability was examined with 3-(4,5-dimethylthiazol-2-yl)-2,5-dipheniltetrazolium bromide (MTT)-Cell Titer 96 AQueous One Solution Cell Proliferation Assay (Promega), according to the manufacturer's protocol. Metabolically active cells were detected by adding 20 μl of MTT to each well. After 1 h of incubation, the plates were analyzed in a Multilabel Counter (Bio-Rad Laboratories). Apoptosis was assessed using Annexin V-FITC apoptosis detection kits followed by flowcytometric analysis and caspase 3/7 activity. Cells were seeded at 1.8106 cells per 100 mm dish, grown overnight in 10% FBS/RPMI, washed with phosphate-buffered saline (PBS) and then treated for 24 h with 400 ng/ml TRAIL. Following incubation, cells were washed with cold PBS and removed from the plates by trypsinization. […] Statistical analysis was done using two sample t test, assuming equal variance, and P value was calculated based on two-tailed test. For detection of caspase 3/7 activity, cells were cultured in 96-well plates and treated with TRAIL 400 ng/ml and analyzed using Caspase-Glo 3/7 Assay kit (Promega) according to the manufacturer's instructions. Continuous variables are expressed as mean values±standard deviation (s.d.).

[4] = system: H460 xenograft; test: H460 xenograft in nude mice treated with TRAIL; type: in vivo; conditions: H460 shPTEN and shTIMP3 vs sh control, TRAIL 10 mg/kg/d ip, 35 days
Procedure: (§1) Animal studies were performed according to institutional guidelines. NCI-H460 cells were stable transfected by using shPTEN and TIMP3 plasmids (Santa Cruz); Calu-1 cells were stable transfected with shMET. After the selection in puromycin for 10 days 5 106 (H460) or 7106 (Calu-1) viable cells were injected s.c. into the right flanks of 6-wk-old male nude mice (Charles RiverBreeding Laboratories, Wilmington, Mass.). Treatment started five days (H460 xenograft) or ten days (Calu-1 xenograft) from tumor cell inoculation by daily ip injections of TRAIL/Apo2 (10 mg/kg/d) or vehicle (PBS) for two cycles of 5 days. Tumor size was assessed every five days by a digital caliper. The tumor volumes were determined by measuring the length (1) and the width (w) and calculating the volume (V=lw2/2). 35 days after injection, mice were sacrificed and tumors samples were analyzed by western blot for PTEN, TIMP3 and MET expression. Statistical significance between control and treated animals was evaluated by using Student's t test. Animal experiments were conducted after approval of the Institutional animal care and use committee, Ohio State University.

[5] = system: Calu-1 xenograft; test: Calu-1 xenograft in nude mice treated with TRAIL; type: in vivo; conditions: Calu-1 shMET vs sh control, TRAIL 10 mg/kg/d ip
Procedure: as §1

Compound	miR-221 and miR-222 downregulated (qRT-PCR) [1]	miR-221 and miR-222 targets (PTEN, TIMP3) expression levels, western blot [2]	cell proliferation / TRAIL-induced cell death (MTT) ([3]; HepG2, Sk-Hep1 and Huh 7, low miR-221-miR-222 expression)	cell proliferation / TRAIL-induced cell death (MTT) ([3]; PLC/PRF-5 and Snu-387, high miR-221-miR-222 expression)	tumor engraftment size / TRAIL resistance [4]	tumor growth / sensitivity to TRAIL [5]
Cc1[nH]c(/C=C2\C(=O)Nc3ccc(S(=O)(=O)N(C)c4cccc(Cl)c4)cc32)c(C)c1C(=O)N1CCN(C)CC1 [SU11274]	about 40%	increased miR-221 and miR-222 targets expression levels				
TRAIL			underwent TRAIL-induced cell death	did not display sensitivity	increases TRAIL resistance in vivo	more sensitive to TRAIL inducing apoptosis
